# In ChEMBL document CHEMBL4507288 (2021):
# Activity calls are given as the source filed them. No cut-off for these calls is given here.
# Columns and labels:
# [1] = target: Inhibitor of nuclear factor kappa-B kinase subunit epsilon (Homo sapiens) (UniProt Q14164); settings: Compound concentration 1000.0 nM
# [2] = target: Calcium/calmodulin-dependent protein kinase type 1G (Homo sapiens) (UniProt Q96NX5); settings: Compound concentration 1000.0 nM
# [3] = target: RAC-alpha serine/threonine-protein kinase (Homo sapiens) (UniProt P31749); settings: Compound concentration 1000.0 nM
# [4] = target: Serine/threonine-protein kinase WNK2 (Homo sapiens) (UniProt Q9Y3S1); settings: Compound concentration 1000.0 nM
# [5] = target: Amyloid-beta precursor protein (Homo sapiens, UniProt P05067); assay: Radioligand Binding Assay
# [6] = tested on: Fibroblast growth factor receptor 3 (Homo sapiens), P22607 [G697C]; settings: Compound concentration 1000.0 nM
# Fibroblast growth factor receptor 3 (Homo sapiens), P22607 [G697C], sequence (P22607 whole entry G697C): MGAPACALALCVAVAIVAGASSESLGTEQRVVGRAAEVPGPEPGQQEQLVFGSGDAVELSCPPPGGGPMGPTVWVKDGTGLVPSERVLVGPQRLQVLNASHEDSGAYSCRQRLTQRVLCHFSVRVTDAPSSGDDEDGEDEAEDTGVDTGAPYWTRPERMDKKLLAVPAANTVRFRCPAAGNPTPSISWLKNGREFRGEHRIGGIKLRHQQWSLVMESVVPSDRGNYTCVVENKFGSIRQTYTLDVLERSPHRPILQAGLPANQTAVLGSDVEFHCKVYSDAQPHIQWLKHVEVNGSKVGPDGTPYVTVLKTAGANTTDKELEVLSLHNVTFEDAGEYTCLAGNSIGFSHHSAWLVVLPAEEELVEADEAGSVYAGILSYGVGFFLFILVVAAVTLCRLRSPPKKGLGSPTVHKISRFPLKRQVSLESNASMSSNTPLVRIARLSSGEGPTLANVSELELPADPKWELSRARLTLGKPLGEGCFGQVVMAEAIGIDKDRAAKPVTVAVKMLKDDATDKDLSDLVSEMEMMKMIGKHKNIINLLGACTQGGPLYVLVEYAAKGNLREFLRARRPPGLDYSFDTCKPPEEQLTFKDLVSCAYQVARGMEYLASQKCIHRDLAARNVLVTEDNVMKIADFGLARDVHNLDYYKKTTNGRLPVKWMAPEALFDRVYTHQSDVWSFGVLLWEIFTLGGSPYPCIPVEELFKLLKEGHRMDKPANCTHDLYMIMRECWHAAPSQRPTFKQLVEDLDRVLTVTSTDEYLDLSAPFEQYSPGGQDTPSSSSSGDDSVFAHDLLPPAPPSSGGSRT
# [7] = target: Mast/stem cell growth factor receptor Kit (Homo sapiens) (UniProt P10721); settings: Compound concentration 1000.0 nM
# Mast/stem cell growth factor receptor Kit (Homo sapiens), sequence (P10721 whole entry): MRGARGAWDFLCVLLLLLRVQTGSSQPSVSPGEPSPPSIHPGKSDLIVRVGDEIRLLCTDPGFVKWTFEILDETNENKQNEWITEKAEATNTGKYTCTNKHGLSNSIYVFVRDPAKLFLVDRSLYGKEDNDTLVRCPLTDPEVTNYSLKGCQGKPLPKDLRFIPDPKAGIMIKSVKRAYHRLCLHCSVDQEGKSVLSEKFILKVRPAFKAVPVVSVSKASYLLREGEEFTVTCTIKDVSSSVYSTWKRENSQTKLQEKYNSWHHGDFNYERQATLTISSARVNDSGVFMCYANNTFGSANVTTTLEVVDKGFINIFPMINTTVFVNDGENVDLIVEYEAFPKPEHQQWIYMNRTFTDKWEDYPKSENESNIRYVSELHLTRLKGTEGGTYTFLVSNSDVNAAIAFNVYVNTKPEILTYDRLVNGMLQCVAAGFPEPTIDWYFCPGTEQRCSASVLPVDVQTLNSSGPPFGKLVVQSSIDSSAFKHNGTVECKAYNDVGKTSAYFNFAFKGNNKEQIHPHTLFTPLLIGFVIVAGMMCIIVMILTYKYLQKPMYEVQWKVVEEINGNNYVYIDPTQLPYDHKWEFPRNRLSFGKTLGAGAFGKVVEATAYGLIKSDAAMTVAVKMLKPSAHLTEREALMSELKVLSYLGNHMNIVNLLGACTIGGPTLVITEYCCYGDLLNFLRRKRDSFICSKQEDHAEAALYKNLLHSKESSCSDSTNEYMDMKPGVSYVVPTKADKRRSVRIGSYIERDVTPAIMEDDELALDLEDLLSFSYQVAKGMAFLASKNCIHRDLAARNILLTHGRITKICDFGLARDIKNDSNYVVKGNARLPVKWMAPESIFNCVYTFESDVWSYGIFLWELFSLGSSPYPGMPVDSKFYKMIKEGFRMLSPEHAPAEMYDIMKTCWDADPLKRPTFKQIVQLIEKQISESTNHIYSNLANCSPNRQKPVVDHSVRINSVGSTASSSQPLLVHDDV
# [8] = tested on: Tyrosine-protein kinase ABL1 (Homo sapiens), P00519 [H396P]; settings: Compound concentration 1000.0 nM
# [9] = target: Glycogen synthase kinase-3 alpha (Homo sapiens) (UniProt P49840); settings: Compound concentration 1000.0 nM
# [10] = target: Serine/threonine-protein kinase PLK2 (Homo sapiens) (UniProt Q9NYY3); settings: Compound concentration 1000.0 nM
# [11] = target: Vascular endothelial growth factor receptor 3 (Homo sapiens) (UniProt P35916); settings: Compound concentration 1000.0 nM
# Vascular endothelial growth factor receptor 3 (Homo sapiens), sequence (P35916 whole entry): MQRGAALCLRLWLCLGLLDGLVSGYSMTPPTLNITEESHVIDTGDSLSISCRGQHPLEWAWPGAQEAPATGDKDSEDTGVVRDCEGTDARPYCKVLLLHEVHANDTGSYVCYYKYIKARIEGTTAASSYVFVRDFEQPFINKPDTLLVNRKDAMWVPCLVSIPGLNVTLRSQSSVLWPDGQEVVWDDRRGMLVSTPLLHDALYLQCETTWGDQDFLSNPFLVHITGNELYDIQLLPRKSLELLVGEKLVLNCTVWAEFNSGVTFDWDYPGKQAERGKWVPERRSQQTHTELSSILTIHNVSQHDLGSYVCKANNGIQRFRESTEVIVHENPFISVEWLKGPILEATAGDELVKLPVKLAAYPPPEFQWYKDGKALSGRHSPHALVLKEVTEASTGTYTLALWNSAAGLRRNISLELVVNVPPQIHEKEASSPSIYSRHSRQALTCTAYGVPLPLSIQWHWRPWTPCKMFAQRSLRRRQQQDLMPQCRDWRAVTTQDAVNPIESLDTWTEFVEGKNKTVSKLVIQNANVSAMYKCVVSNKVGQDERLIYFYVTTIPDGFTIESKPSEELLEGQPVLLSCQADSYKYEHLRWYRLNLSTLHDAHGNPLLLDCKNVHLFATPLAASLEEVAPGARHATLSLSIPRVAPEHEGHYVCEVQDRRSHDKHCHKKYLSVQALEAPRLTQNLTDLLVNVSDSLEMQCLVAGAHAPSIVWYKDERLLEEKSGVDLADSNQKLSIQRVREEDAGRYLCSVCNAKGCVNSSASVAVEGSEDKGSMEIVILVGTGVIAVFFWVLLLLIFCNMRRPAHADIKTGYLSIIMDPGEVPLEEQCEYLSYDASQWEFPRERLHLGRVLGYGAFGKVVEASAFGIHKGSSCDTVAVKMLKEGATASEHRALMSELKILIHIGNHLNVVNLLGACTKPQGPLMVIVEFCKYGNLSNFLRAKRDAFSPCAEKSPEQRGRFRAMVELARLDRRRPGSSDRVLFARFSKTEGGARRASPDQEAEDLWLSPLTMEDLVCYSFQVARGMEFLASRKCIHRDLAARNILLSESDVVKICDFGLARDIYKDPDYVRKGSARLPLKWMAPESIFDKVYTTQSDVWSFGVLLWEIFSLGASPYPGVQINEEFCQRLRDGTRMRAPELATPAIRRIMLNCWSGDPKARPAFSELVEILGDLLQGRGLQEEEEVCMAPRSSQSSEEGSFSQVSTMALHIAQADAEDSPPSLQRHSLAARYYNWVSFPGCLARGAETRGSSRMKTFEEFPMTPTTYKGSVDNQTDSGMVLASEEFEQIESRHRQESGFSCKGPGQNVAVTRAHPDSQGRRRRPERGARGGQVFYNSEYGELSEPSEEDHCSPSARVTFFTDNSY
# [12] = tested on: Mast/stem cell growth factor receptor Kit (Homo sapiens), P10721 [A829P]; settings: Compound concentration 1000.0 nM
# Mast/stem cell growth factor receptor Kit (Homo sapiens), P10721 [A829P], sequence (P10721 whole entry A829P): as the sequence (P10721 whole entry) above, with A829P counted along it
# [13] = target: Ephrin type-A receptor 7 (Homo sapiens) (UniProt Q15375); settings: Compound concentration 1000.0 nM
# [14] = tested on: Epidermal growth factor receptor (Homo sapiens), P00533 [L858R]; settings: Compound concentration 1000.0 nM
# [15] = target: Ribosomal protein S6 kinase alpha-1 (Homo sapiens) (UniProt Q15418); settings: Compound concentration 1000.0 nM
# Ribosomal protein S6 kinase alpha-1 (Homo sapiens), sequence (Q15418 whole entry): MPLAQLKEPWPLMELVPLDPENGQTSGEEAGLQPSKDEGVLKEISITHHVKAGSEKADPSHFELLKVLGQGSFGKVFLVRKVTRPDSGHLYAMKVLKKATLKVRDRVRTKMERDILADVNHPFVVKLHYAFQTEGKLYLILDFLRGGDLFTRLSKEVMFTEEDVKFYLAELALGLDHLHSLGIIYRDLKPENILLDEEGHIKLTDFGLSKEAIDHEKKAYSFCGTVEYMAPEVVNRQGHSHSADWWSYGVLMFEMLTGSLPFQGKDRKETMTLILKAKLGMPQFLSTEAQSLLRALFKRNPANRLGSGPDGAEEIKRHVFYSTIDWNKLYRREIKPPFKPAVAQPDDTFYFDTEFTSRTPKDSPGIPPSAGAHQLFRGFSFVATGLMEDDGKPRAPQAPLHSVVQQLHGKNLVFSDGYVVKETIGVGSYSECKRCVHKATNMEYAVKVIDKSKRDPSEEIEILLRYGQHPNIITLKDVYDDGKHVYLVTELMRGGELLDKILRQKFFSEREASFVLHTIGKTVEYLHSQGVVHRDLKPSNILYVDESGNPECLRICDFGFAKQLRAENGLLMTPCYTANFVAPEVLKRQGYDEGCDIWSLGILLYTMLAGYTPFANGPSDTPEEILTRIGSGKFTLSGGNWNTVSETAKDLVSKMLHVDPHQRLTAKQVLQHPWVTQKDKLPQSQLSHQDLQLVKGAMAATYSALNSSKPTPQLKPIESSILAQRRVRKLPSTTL
# [16] = target: Beta-adrenergic receptor kinase 1 (Homo sapiens) (UniProt P25098); settings: Compound concentration 1000.0 nM
# [17] = target: Wee1-like protein kinase (Homo sapiens) (UniProt P30291); settings: Compound concentration 1000.0 nM
# [18] = target: Serine/threonine-protein kinase Chk1 (Homo sapiens) (UniProt O14757); settings: Compound concentration 1000.0 nM
# [19] = target: Serine/threonine-protein kinase Nek11 (Homo sapiens) (UniProt Q8NG66); settings: Compound concentration 1000.0 nM
# [20] = target: Serine/threonine-protein kinase PAK 2 (Homo sapiens) (UniProt Q13177); settings: Compound concentration 1000.0 nM
# [21] = target: Serine/threonine-protein kinase WNK1 (Homo sapiens) (UniProt Q9H4A3); settings: Compound concentration 1000.0 nM
# [22] = target: Serine/threonine-protein kinase PAK 6 (Homo sapiens) (UniProt Q9NQU5); settings: Compound concentration 1000.0 nM
# [23] = target: Casein kinase I isoform epsilon (Homo sapiens) (UniProt P49674); settings: Compound concentration 1000.0 nM
# [24] = target: Phosphatidylinositol 4-phosphate 3-kinase C2 domain-containing subunit beta (Homo sapiens) (UniProt O00750); settings: Compound concentration 1000.0 nM
# [25] = target: Serine/threonine-protein kinase MRCK alpha (Homo sapiens) (UniProt Q5VT25); settings: Compound concentration 1000.0 nM
# [26] = target: Rho-associated protein kinase 1 (Homo sapiens) (UniProt Q13464); settings: Compound concentration 1000.0 nM
# [27] = tested on: Epidermal growth factor receptor (Homo sapiens), P00533 [UNDEFINED MUTATION]; settings: Compound concentration 1000.0 nM
# [28] = target: Interleukin-1 receptor-associated kinase 3 (Homo sapiens) (UniProt Q9Y616); settings: Compound concentration 1000.0 nM
# [29] = target: Serine/threonine-protein kinase NIM1 (Homo sapiens) (UniProt Q8IY84); settings: Compound concentration 1000.0 nM
# [30] = target: Ribosomal protein S6 kinase alpha-2 (Homo sapiens) (UniProt Q15349); settings: Compound concentration 1000.0 nM
# [31] = target: cGMP-dependent protein kinase 1 (Homo sapiens) (UniProt Q13976); settings: Compound concentration 1000.0 nM
# [32] = target: Mitogen-activated protein kinase kinase kinase 11 (Homo sapiens) (UniProt Q16584); settings: Compound concentration 1000.0 nM
# [33] = target: Tyrosine-protein kinase TXK (Homo sapiens) (UniProt P42681); settings: Compound concentration 1000.0 nM
# [34] = target: Leukocyte tyrosine kinase receptor (Homo sapiens) (UniProt P29376); settings: Compound concentration 1000.0 nM
# [35] = target: Tyrosine-protein kinase Mer (Homo sapiens) (UniProt Q12866); settings: Compound concentration 1000.0 nM
# [36] = target: Tyrosine-protein kinase CSK (Homo sapiens) (UniProt P41240); settings: Compound concentration 1000.0 nM
# [37] = tested on: Mast/stem cell growth factor receptor Kit (Homo sapiens), P10721 [V559D,T670I]; settings: Compound concentration 1000.0 nM
# Mast/stem cell growth factor receptor Kit (Homo sapiens), P10721 [V559D,T670I], sequence (P10721 whole entry V559D/T670I): as the sequence (P10721 whole entry) above, with V559D, T670I counted along it
# [38] = target: Serine/threonine-protein kinase DCLK1 (Homo sapiens) (UniProt O15075); settings: Compound concentration 1000.0 nM
# [39] = target: 1-phosphatidylinositol 3-phosphate 5-kinase (Homo sapiens) (UniProt Q9Y2I7); settings: Compound concentration 1000.0 nM
# [40] = target: Phosphatidylinositol 4,5-bisphosphate 3-kinase catalytic subunit beta isoform (Homo sapiens) (UniProt P42338); settings: Compound concentration 1000.0 nM
# [41] = target: Serine/threonine-protein kinase 38 (Homo sapiens) (UniProt Q15208); settings: Compound concentration 1000.0 nM
# [42] = target: Mast/stem cell growth factor receptor Kit (Homo sapiens) (UniProt P10721); settings: Compound concentration 1000.0 nM; remark: listed apart in the source
# [43] = target: 5-hydroxytryptamine receptor 7 (Homo sapiens, UniProt P34969); assay: GPCRScan assay: inhibition of 5-HT7A; design: radioligand conc. used [nm] 5.0 – 6.0, parental cells Stable HEK
# 5-hydroxytryptamine receptor 7, sequence (P34969 whole entry): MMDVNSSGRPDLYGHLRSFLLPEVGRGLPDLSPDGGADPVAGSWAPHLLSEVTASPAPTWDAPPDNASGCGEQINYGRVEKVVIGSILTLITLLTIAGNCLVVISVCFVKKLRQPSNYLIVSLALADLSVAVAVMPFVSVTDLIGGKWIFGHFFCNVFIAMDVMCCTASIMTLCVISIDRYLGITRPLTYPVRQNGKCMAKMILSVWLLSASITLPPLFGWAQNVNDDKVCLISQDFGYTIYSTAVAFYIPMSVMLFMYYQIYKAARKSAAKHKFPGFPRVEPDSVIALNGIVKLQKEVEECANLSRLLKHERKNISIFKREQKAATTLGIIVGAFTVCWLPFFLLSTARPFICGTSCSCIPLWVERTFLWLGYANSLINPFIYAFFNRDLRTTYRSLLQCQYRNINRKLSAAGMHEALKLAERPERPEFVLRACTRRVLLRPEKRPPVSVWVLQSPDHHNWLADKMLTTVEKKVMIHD
# Histamine H2 receptor = Histamine H2 receptor (Homo sapiens, UniProt P25021); assay: GPCRScan assay: inhibition of H2; design: radioligand conc. used [nm] 0.02 – 0.05, parental cells Stable HEK
# Histamine H2 receptor, sequence (P25021 whole entry): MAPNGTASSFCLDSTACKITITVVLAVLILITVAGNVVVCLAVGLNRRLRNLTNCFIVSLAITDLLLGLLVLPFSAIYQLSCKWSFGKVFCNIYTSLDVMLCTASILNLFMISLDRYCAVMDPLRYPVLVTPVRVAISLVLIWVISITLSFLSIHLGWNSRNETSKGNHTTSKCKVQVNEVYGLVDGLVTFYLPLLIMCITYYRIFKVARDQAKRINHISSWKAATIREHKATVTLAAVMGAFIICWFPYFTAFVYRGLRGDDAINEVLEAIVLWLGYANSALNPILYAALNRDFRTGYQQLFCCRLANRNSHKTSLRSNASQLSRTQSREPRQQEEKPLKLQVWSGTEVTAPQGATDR
# D(3) dopamine receptor = D(3) dopamine receptor (Homo sapiens, UniProt P35462); assay: GPCRScan assay: inhibition of D3; design: radioligand conc. used [nm] 0.5 – 1.8, parental cells HEKT
smiles,measurement,setting,value
O=S(=O)(NC1CCC(c2cc(F)ccc2F)(S(=O)(=O)c2ccc(Cl)cc2)CC1)C(F)(F)F (stereo unspecified) [MRK-560],residual activity,[1],0%
same,residual activity,[2],100%
same,residual activity,[3],5%
same,residual activity,[4],77%
same,IC50,[5],0.65 nM (active)
same,residual activity,[6],100%
same,residual activity,[7],100%
same,residual activity,[8],100%
same,residual activity,[9],87%
same,residual activity,[10],100%
same,residual activity,[11],100%
same,residual activity,[12],100%
same,residual activity,[13],100%
same,residual activity,[14],100%
same,residual activity,[15],100%
same,residual activity,[16],73%
same,residual activity,[17],90%
same,residual activity,[18],100%
same,residual activity,[19],100%
same,residual activity,[20],100%
same,residual activity,[21],100%
same,residual activity,[22],100%
same,residual activity,[23],85%
same,residual activity,[24],100%
same,residual activity,[25],91%
same,residual activity,[26],84%
same,residual activity,[27],0%
same,residual activity,[28],98%
same,residual activity,[29],80%
same,residual activity,[30],100%
same,residual activity,[31],100%
same,residual activity,[32],100%
same,residual activity,[33],99%
same,residual activity,[34],100%
same,residual activity,[35],99%
same,residual activity,[36],100%
same,residual activity,[37],100%
same,residual activity,[38],100%
same,residual activity,[39],60%
same,residual activity,[40],100%
same,residual activity,[41],100%
same,residual activity,[42],100%
CC(C)(C)OC(=O)N1CCCC1CNC1CCC(c2cc(F)ccc2F)(S(=O)(=O)c2ccc(Cl)cc2)CC1 (stereo unspecified) [GSI-NC],Ki,[43]; read-out: Ki,826 nM
same,Ki,[43]; read-out: pKi (converted),851 nM
same,Ki,Histamine H2 receptor,3790 nM
same,Ki,D(3) dopamine receptor,710 nM
